The values that follow are results of earlier work, collected in patent publication US20230111190A1, “ORAL COMPOSITIONS WITH IMPROVED BIOAVAILABILITY AND METHODS OF MAKING THE SAME” (Nulixir Inc., priority 2021, published 2023).

Tested on in one series: not given
Particulars: one study estimated.
On to `COc1ccc2cc3[n+](cc2c1OC)CCc1cc2c(cc1-3)OCO2` [berberine], for which the “affected by first-pass digestion” value is reported as 43%; the “bioavailability lost to hepatic metabolism” value was “minimal amount”; the “not absorbed and eliminated via feces” value is given as 56%.

Tested on in the next series: not given
Particulars: in vivo.
With `CCCCCCCC/C=C\CCCCCCCC(=O)O` [oleic acid], the “absorbed via the lymphatic system” value is 85% and the “absorbed via the portal vein” value was 15%.

Tested on in the next series: not given
Conditions: dependence on water content.
For the compound `COc1ccc2cc3[n+](cc2c1OC)CCc1cc2c(cc1-3)OCO2` [berberine], the solubility in ethanol entry is reported as “decreases rapidly with water content”.

Another series concerns many strains of fungi.
Settings: not given
For the compound `O=CC=Cc1ccccc1` [Cinnamaldehyde], the antifungal inhibitory activity entry is given as “strong inhibitory activity”.

Tested on in the next series: not given
Conditions: n-octanol and water; categorization at pH = 7 unless stated otherwise.
The term logP denotes the decadic logarithm of the partition coefficient of the neutral form, usually between octanol and water. For bacopaside B, the logP is reported as roughly 2.8. For `COc1nc2c(c(=O)n1C)n(C)c(=O)n2C` [methylliberine], the logP was roughly -0.083.

In the case of (R)-kawain, the logP is reported as roughly 2.7. In the case of `COc1ccc([C@@]23CCC(=O)C[C@@H]2N(C)CC3)cc1OC` [mesembrine], the logP is listed as roughly 1.5. On to `CC(C)=C[C@H]1C[C@](C)(O)[C@@H]2[C@H]3CC[C@@H]4[C@@]5(C)CC[C@H](O[C@@H]6OC[C@H](O)[C@H](O[C@@H]7O[C@H](CO)[C@@H](O)[C@H](O)[C@H]7O)[C@H]6O[C@@H]6O[C@@H](CO)[C@H](O)[C@H]6O)C(C)(C)[C@@H]5CC[C@@]4(C)[C@@]34CO[C@@]2(C4)O1` [bacopaside X], for which the logP is reported as roughly 2.2.

Take `COc1cc2c(c(OC)c1OC)-c1c(cc(OC)c(OC)c1OC)C[C@H](C)[C@H](C)C2` [(-)-schisandrin A]: the logP is roughly 3.6.

For herinacine A, the logP is reported as roughly 2.5.

Regarding `COc1ccc(C23C=CC(O)CC2N(C)CC3)cc1OC` (centres unmarked) [mesembrenol], the logP is reported as roughly 2.4. With tortuosomine, the logP is recorded as roughly 3. As for `N[C@@H](Cc1c[nH]c2ccc(O)cc12)C(=O)O` [5-HTP, 5-hydroxytryptophan], the logP is recorded as roughly -2.

With `CC(/C=C/C=C(\C)C(=O)O[C@@H]1O[C@H](CO[C@@H]2O[C@H](CO)[C@@H](O)[C@H](O)[C@H]2O)[C@@H](O)[C@H](O)[C@H]1O)=C\C=C\C=C(C)\C=C\C=C(/C)C(=O)O[C@@H]1O[C@H](CO[C@@H]2O[C@H](CO)[C@@H](O)[C@H](O)[C@H]2O)[C@@H](O)[C@H](O)[C@H]1O` [alpha-crocin], the logP is reported as roughly -1.5. As to `COc1cc(/C=C\c2ccc(OC)c(O)c2)oc(=O)c1` [11-hydroxyyangonin], the logP is reported as roughly 2.2. In the case of `O=C(O)c1cc(C(=O)O)c2c(n1)C(=O)C(=O)c1cc(C(=O)O)[nH]c1-2` [PQQ, pyrroloquinoline quinone], the logP is recorded as roughly 0.4. `COc1cc(O)c2c(=O)c(OC)c(-c3ccc(O)cc3)oc2c1` [kumatakenin]: the logP is on record as roughly 2.5. For `O=C(/C=C/c1ccccc1)N1CCCC1` [(E)-1-cinnamoylpyrrolidine], the logP is roughly 2.2. As for (-)-schisandrin C, the logP is roughly 3.5. For `COc1ccc(CCc2cc(OC)cc(=O)o2)cc1` [7,8-dihydroyangonin], the logP is roughly 2.9. As for `COc1cc2c(c(OC)c1OC)-c1c(cc3c(c1OC)OCO3)CC(C)C(C)C2` (single isomer, unassigned; (-)) [(-)-schisandrin B], the logP is roughly 4. With `COc1ccc([C@@]23C=CC(=O)C[C@@H]2N(C)CC3)cc1OC` [mesembrenone], the logP is on record as roughly 1.3. For the compound `COc1cc2c(c(OC)c1OC)-c1c(cc(OC)c(OC)c1OC)C[C@](C)(O)[C@@H](C)C2` [(+)-schisandrin], the logP is roughly 5.

As for `N#C[C@@]1(O[C@@H]2O[C@H](CO)[C@@H](O)[C@H](O)[C@H]2O)C=C[C@@H](O)C1` [tetraphyllin B], the logP is recorded as roughly -2.5. For `CC(C)=CCC[C@](C)(O[C@@H]1O[C@H](CO[C@@H]2O[C@H](CO)[C@@H](O)[C@H](O)[C@H]2O)[C@@H](O)[C@H](O)[C@H]1O)[C@H]1CC[C@]2(C)[C@@H]1[C@H](O)C[C@@H]1[C@@]3(C)CC[C@H](O[C@@H]4O[C@H](CO)[C@@H](O)[C@H](O)[C@H]4O[C@@H]4O[C@H](CO)[C@@H](O)[C@H](O)[C@H]4O)C(C)(C)[C@@H]3CC[C@]12C` [ginsenoside rb1], the logP was roughly -1. For the compound `CC(C)=C[C@@H]1CO[C@]23C[C@]4(CO2)[C@H](CC[C@@H]2[C@@]5(C)CC[C@H](O[C@@H]6OC[C@H](O)[C@H](O[C@@H]7O[C@H](CO)[C@@H](O)[C@H](O)[C@H]7O)[C@H]6O[C@@H]6O[C@@H](CO)[C@H](O)[C@H]6O)C(C)(C)[C@@H]5CC[C@]24C)[C@H]3[C@@]1(C)O` [bacopasaponin C], the logP is given as roughly 2. Turning to `COc1cc([C@H]2Oc3cc(O)c4c(=O)c(O)c(-c5ccc(O)cc5)oc4c3O[C@@H]2CO)ccc1O` [rhodiolin], the logP is given as roughly 2. Turning to `COc1cc2c(c(OC)c1OC)-c1c(cc(OC)c(OC)c1OC)C[C@](C)(O)[C@@H](C)C2` [schisandrol A], the logP is listed as roughly 3.4. For the compound `CC(C)=C[C@H]1C[C@](C)(O)[C@H]2[C@H]3CC[C@@H]4[C@@]5(C)CC[C@H](O[C@@H]6O[C@H](CO)[C@@H](O)[C@H](O[C@@H]7O[C@H](CO)[C@@H](O)[C@H](O)[C@H]7O)[C@H]6O[C@@H]6O[C@@H](CO)[C@H](O)[C@H]6O)C(C)(C)[C@@H]5CC[C@@]4(C)[C@@]34CO[C@@]2(C4)O1` [bacoside A3], the logP is roughly 2.1.

As for `COC1=CC(=O)O[C@@H](CCc2ccc3c(c2)OCO3)C1` [7,8-dihydromethysticin], the logP is listed as roughly 2.2. Turning to `N[C@@H](Cc1ccccc1)C(=O)O` [L-phenylalanine], the logP was roughly -1.38. Consider `CC(=O)OC1C=CC(=O)N(C(=O)CCc2ccccc2)C1` (centres unmarked) [pipermethystine], for which the logP was roughly 1.8. As for `Cn1cnc2c1c(=O)[nH]c(=O)n2C` [theobromine], the logP was roughly -0.78. For `Cn1c(=O)c2c(n(C)c1=O)n(C)c(=O)n2C` [theacrine], the logP is roughly -1.06. As for `CC1=C(CO)C(=O)O[C@@H]([C@@H](C)[C@H]2CC[C@H]3[C@@H]4C[C@H](Cl)[C@]5(O)[C@@H](O)C=CC(=O)[C@]5(C)[C@H]4CC[C@]23C)C1` [6a-chloro-5b-hydroxywithaferin A], the logP is recorded as roughly 3.2. For the compound `CCNC(=O)CC[C@H](N)C(=O)O` [L-theanine], the logP is roughly -3.

As to `COC1=CC(=O)OC(/C=C/c2ccc(OC)cc2)C1` (centres unmarked) [5,6-dihydroyangonin], the logP is given as roughly 2.5. `COc1ccc(/C=C/c2cc(OC)cc(=O)o2)cc1` [yangonin]: the logP is on record as roughly 2.8. For `CC(C)=CCC[C@](C)(O[C@@H]1O[C@H](CO)[C@@H](O)[C@H](O)[C@H]1O)[C@H]1CC[C@]2(C)[C@@H]1[C@H](O)C[C@@H]1[C@@]3(C)CC[C@H](O)C(C)(C)[C@@H]3[C@@H](O[C@@H]3O[C@H](CO)[C@@H](O)[C@H](O)[C@H]3O)C[C@]12C` [ginsenoside rg1], the logP is listed as roughly 0.8. In the case of `NCCCC(=O)O` [GABA, gamma-aminobutyric acid], the logP is roughly -3. As to schisandroside C, the logP was roughly 1.6. Turning to hericerin, the logP is given as roughly 6.4. `COc1cc(/C=C/c2ccccc2)oc(=O)c1` [5,6-dehydrokawain]: the logP is recorded as roughly 2.9.
